From patent US20020111274A1, “1-alkyl-3-[1-(substituted phenyl) benzotriazol-6-yl] uracils” (BASF Aktiengesellschaft, priority 2000, published 2002)

Tests used:
Design in all cases: scale not given here
[1] = tested on: SETVI Foxtail, Green; test: Preemergence herbicidal evaluation, SETVI; assay type: in vivo, Setaria viridis, (L.) Beau; settings: preemergence
Procedure, shortened: (§1)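 Seeds mixed with potting soil in cups, then sprayed preemergence with aqueous acetone test solution at about 0.013 to 0.800 kg per hectare equivalent. Cups kept under standard greenhouse care; plants rated on a visual scale four to five weeks after treatment.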

[2] = tested on: ABUTH Velvetleaf; test: Preemergence herbicidal evaluation, ABUTH; assay type: in vivo, Abutilon theophrasti, Medic.; settings: preemergence
Procedure, shortened: as §1

[3] = tested on: GALAP Galium; test: Postemergence herbicidal evaluation, GALAP; assay type: in vivo, Galium aparine; settings: postemergence spray, rated about two-three weeks after treatment
Procedure, shortened: (§2)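 Visual injury rating ~2–3 wk post-spray; replicate tests averaged. Two-week-old seedlings; foliar spray at 40 psi; 0.006–0.400 kg ai/ha in 80/20 acetone/water + 1.0% methylated seed oil.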

[4] = tested on: CASOB Sicklepod; test: Preemergence herbicidal evaluation, CASOB; assay type: in vivo, Cassia obtusifolia, L.; settings: preemergence
Procedure, shortened: as §1

[5] = tested on: ABUTH Velvetleaf; test: Postemergence herbicidal evaluation, ABUTH; assay type: in vivo, Abutilon theophrasti, Medic.; settings: postemergence spray, rated about two-three weeks after treatment
Procedure, shortened: as §2

[6] = tested on: IPOHE Morningglory, Ivyleaf; test: Postemergence herbicidal evaluation, IPOHE; assay type: in vivo, Ipomoea hederacea, (L.) Jacq.; settings: postemergence spray, rated about two-three weeks after treatment
Procedure, shortened: as §2

[7] = tested on: TRZAWR Wheat, Winter, cv Riband; test: Postemergence herbicidal evaluation, TRZAWR; assay type: in vivo, Triticum aestivum; settings: postemergence spray, rated about two-three weeks after treatment
Procedure, shortened: as §2

[8] = tested on: ZEAMX Corn, Field; test: Preemergence herbicidal evaluation, ZEAMX; assay type: in vivo, Zea mays, L. (Sammel-Bezeichnung); settings: preemergence
Procedure, shortened: as §1

[9] = tested on: TRZAWR Wheat, Winter, cv Riband; test: Preemergence herbicidal evaluation, TRZAWR; assay type: in vivo, Triticum aestivum; settings: preemergence
Procedure, shortened: as §1

[10] = tested on: AMBEL Ragweed, Common; test: Preemergence herbicidal evaluation, AMBEL; assay type: in vivo, Ambrosia artemisifolia, L.; settings: preemergence
Procedure, shortened: as §1

[11] = tested on: CASOB Sicklepod; test: Postemergence herbicidal evaluation, CASOB; assay type: in vivo, Cassia obtusifolia, L.; settings: postemergence spray, rated about two-three weeks after treatment
Procedure, shortened: as §2

[12] = tested on: GLXMAW Soybean, Williams; test: Postemergence herbicidal evaluation, GLXMAW; assay type: in vivo, Glycine max, (L.) Merr. cv Williams; settings: postemergence spray, rated about two-three weeks after treatment
Procedure, shortened: as §2

[13] = tested on: ORYSAT Rice, Tebonnet; test: Preemergence herbicidal evaluation, ORYSAT; assay type: in vivo, Oryza sativa, (L.); settings: preemergence
Procedure, shortened: as §1

[14] = tested on: GALAP Galium; test: Preemergence herbicidal evaluation, GALAP; assay type: in vivo, Galium aparine; settings: preemergence
Procedure, shortened: as §1

[15] = tested on: AMBEL Ragweed, Common; test: Postemergence herbicidal evaluation, AMBEL; assay type: in vivo, Ambrosia artemisifolia, L.; settings: postemergence spray, rated about two-three weeks after treatment
Procedure, shortened: as §2

[16] = tested on: ZEAMX Corn, Field; test: Postemergence herbicidal evaluation, ZEAMX; assay type: in vivo, Zea mays, L. (Sammel-Bezeichnung); settings: postemergence spray, rated about two-three weeks after treatment
Procedure, shortened: as §2

[17] = tested on: ORYSAT Rice, Tebonnet; test: Postemergence herbicidal evaluation, ORYSAT; assay type: in vivo, Oryza sativa, (L.); settings: postemergence spray, rated about two-three weeks after treatment
Procedure, shortened: as §2

[18] = tested on: ECHOG Barnyardgrass; test: Postemergence herbicidal evaluation, ECHOG; assay type: in vivo, Echinochloa crus-galli, (L.) Beau; settings: postemergence spray, rated about two-three weeks after treatment
Procedure, shortened: as §2

[19] = tested on: IPOHE Morningglory, Ivyleaf; test: Preemergence herbicidal evaluation, IPOHE; assay type: in vivo, Ipomoea hederacea, (L.) Jacq.; settings: preemergence
Procedure, shortened: as §1

[20] = tested on: GLXMAW Soybean, Williams; test: Preemergence herbicidal evaluation, GLXMAW; assay type: in vivo, Glycine max, (L.) Merr. cv Williams; settings: preemergence
Procedure, shortened: as §1

[21] = tested on: CHEAL Lambsquarters, Common; test: Postemergence herbicidal evaluation, CHEAL; assay type: in vivo, Chenopodium album, L.; settings: postemergence spray, rated about two-three weeks after treatment
Procedure, shortened: as §2

[22] = tested on: CHEAL Lambsquarters, Common; test: Preemergence herbicidal evaluation, CHEAL; assay type: in vivo, Chenopodium album, L.; settings: preemergence
Procedure, shortened: as §1

[23] = tested on: ECHOG Barnyardgrass; test: Preemergence herbicidal evaluation, ECHOG; assay type: in vivo, Echinochloa crus-galli, (L.) Beau; settings: preemergence
Procedure, shortened: as §1

[24] = tested on: SETVI Foxtail, Green; test: Postemergence herbicidal evaluation, SETVI; assay type: in vivo, Setaria viridis, (L.) Beau; settings: postemergence spray, rated about two-three weeks after treatment
Procedure, shortened: as §2

SMILES: COc1ccc(C)c(-n2nnc3cc(F)c(-n4c(=O)cc(C(F)(F)F)n(C)c4=O)cc32)c1 [Example 22]
- SETVI herbicidal rating ([1]; rate 0.016 kg/ha): 0.0
- SETVI herbicidal rating ([1]; rate 0.032 kg/ha): 2.0
- SETVI herbicidal rating ([1]; rate 0.062 kg/ha): 7.0
- SETVI herbicidal rating ([1]; rate 0.125 kg/ha): 9.0
- ABUTH herbicidal rating ([2]; rate 0.016 kg/ha): 0.0
- ABUTH herbicidal rating ([2]; rate 0.032 kg/ha): 9.0
- ABUTH herbicidal rating ([2]; rate 0.062 kg/ha): 9.0
- ABUTH herbicidal rating ([2]; rate 0.125 kg/ha): 7.0
- Postemergence herbicidal rating GALAP ([3]; 0.008 kg/ha): 0.0
- Postemergence herbicidal rating GALAP ([3]; 0.016 kg/ha): 0.0
- Postemergence herbicidal rating GALAP ([3]; 0.032 kg/ha): 3.0
- Postemergence herbicidal rating GALAP ([3]; 0.062 kg/ha): 5.0
- CASOB herbicidal rating ([4]; rate 0.016 kg/ha): 0.0
- CASOB herbicidal rating ([4]; rate 0.032 kg/ha): 0.0
- CASOB herbicidal rating ([4]; rate 0.062 kg/ha): 0.0
- CASOB herbicidal rating ([4]; rate 0.125 kg/ha): 0.0
- Postemergence herbicidal rating ABUTH ([5]; 0.008 kg/ha): 9.0
- Postemergence herbicidal rating ABUTH ([5]; 0.016 kg/ha): 9.0
- Postemergence herbicidal rating ABUTH ([5]; 0.032 kg/ha): 9.0
- Postemergence herbicidal rating ABUTH ([5]; 0.062 kg/ha): 9.0
- Postemergence herbicidal rating IPOHE ([6]; 0.008 kg/ha): 2.0
- Postemergence herbicidal rating IPOHE ([6]; 0.016 kg/ha): 2.0
- Postemergence herbicidal rating IPOHE ([6]; 0.032 kg/ha): 9.0
- Postemergence herbicidal rating IPOHE ([6]; 0.062 kg/ha): 2.0
- Postemergence herbicidal rating TRZAWR ([7]; 0.008 kg/ha): 3.0
- Postemergence herbicidal rating TRZAWR ([7]; 0.016 kg/ha): 3.5
- Postemergence herbicidal rating TRZAWR ([7]; 0.032 kg/ha): 4.0
- Postemergence herbicidal rating TRZAWR ([7]; 0.062 kg/ha): 4.5
- ZEAMX herbicidal rating ([8]; rate 0.016 kg/ha): 0.0
- ZEAMX herbicidal rating ([8]; rate 0.032 kg/ha): 2.0
- ZEAMX herbicidal rating ([8]; rate 0.062 kg/ha): 4.0
- ZEAMX herbicidal rating ([8]; rate 0.125 kg/ha): 6.0
- TRZAWR herbicidal rating ([9]; rate 0.016 kg/ha): 0.0
- TRZAWR herbicidal rating ([9]; rate 0.032 kg/ha): 1.0
- TRZAWR herbicidal rating ([9]; rate 0.062 kg/ha): 2.0
- TRZAWR herbicidal rating ([9]; rate 0.125 kg/ha): 4.0
- AMBEL herbicidal rating ([10]; rate 0.016 kg/ha): 0.0
- AMBEL herbicidal rating ([10]; rate 0.032 kg/ha): 0.0
- AMBEL herbicidal rating ([10]; rate 0.062 kg/ha): 0.0
- AMBEL herbicidal rating ([10]; rate 0.125 kg/ha): 0.0
- Postemergence herbicidal rating CASOB ([11]; 0.008 kg/ha): 0.0
- Postemergence herbicidal rating CASOB ([11]; 0.016 kg/ha): 0.0
- Postemergence herbicidal rating CASOB ([11]; 0.032 kg/ha): 0.0
- Postemergence herbicidal rating CASOB ([11]; 0.062 kg/ha): 0.0
- Postemergence herbicidal rating GLXMAW ([12]; 0.008 kg/ha): 4.0
- Postemergence herbicidal rating GLXMAW ([12]; 0.016 kg/ha): 4.5
- Postemergence herbicidal rating GLXMAW ([12]; 0.032 kg/ha): 4.0
- Postemergence herbicidal rating GLXMAW ([12]; 0.062 kg/ha): 5.0
- ORYSAT herbicidal rating ([13]; rate 0.016 kg/ha): 0.0
- ORYSAT herbicidal rating ([13]; rate 0.032 kg/ha): 0.0
- ORYSAT herbicidal rating ([13]; rate 0.062 kg/ha): 0.0
- ORYSAT herbicidal rating ([13]; rate 0.125 kg/ha): 0.0
- GALAP herbicidal rating ([14]; rate 0.016 kg/ha): 0.0
- GALAP herbicidal rating ([14]; rate 0.032 kg/ha): 0.0
- GALAP herbicidal rating ([14]; rate 0.062 kg/ha): 0.0
- GALAP herbicidal rating ([14]; rate 0.125 kg/ha): 0.0
- Postemergence herbicidal rating AMBEL ([15]; 0.008 kg/ha): 0.0
- Postemergence herbicidal rating AMBEL ([15]; 0.016 kg/ha): 0.0
- Postemergence herbicidal rating AMBEL ([15]; 0.032 kg/ha): 2.0
- Postemergence herbicidal rating AMBEL ([15]; 0.062 kg/ha): 3.0
- Postemergence herbicidal rating ZEAMX ([16]; 0.008 kg/ha): 4.5
- Postemergence herbicidal rating ZEAMX ([16]; 0.016 kg/ha): 4.5
- Postemergence herbicidal rating ZEAMX ([16]; 0.032 kg/ha): 4.0
- Postemergence herbicidal rating ZEAMX ([16]; 0.062 kg/ha): 4.5
- Postemergence herbicidal rating ORYSAT ([17]; 0.008 kg/ha): 2.0
- Postemergence herbicidal rating ORYSAT ([17]; 0.016 kg/ha): 2.5
- Postemergence herbicidal rating ORYSAT ([17]; 0.032 kg/ha): 3.0
- Postemergence herbicidal rating ORYSAT ([17]; 0.062 kg/ha): 3.0
- Postemergence herbicidal rating ECHCG ([18]; 0.008 kg/ha): 0.0
- Postemergence herbicidal rating ECHCG ([18]; 0.016 kg/ha): 0.0
- Postemergence herbicidal rating ECHCG ([18]; 0.032 kg/ha): 0.0
- Postemergence herbicidal rating ECHCG ([18]; 0.062 kg/ha): 0.0
- IPOHE herbicidal rating ([19]; rate 0.016 kg/ha): 0.0
- IPOHE herbicidal rating ([19]; rate 0.032 kg/ha): 0.0
- IPOHE herbicidal rating ([19]; rate 0.062 kg/ha): 0.0
- IPOHE herbicidal rating ([19]; rate 0.125 kg/ha): 0.0
- GLXMAW herbicidal rating ([20]; rate 0.016 kg/ha): 0.0
- GLXMAW herbicidal rating ([20]; rate 0.032 kg/ha): 0.0
- GLXMAW herbicidal rating ([20]; rate 0.062 kg/ha): 0.0
- GLXMAW herbicidal rating ([20]; rate 0.125 kg/ha): 0.0
- Postemergence herbicidal rating CHEAL ([21]; 0.008 kg/ha): 9.0
- Postemergence herbicidal rating CHEAL ([21]; 0.016 kg/ha): 9.0
- Postemergence herbicidal rating CHEAL ([21]; 0.032 kg/ha): 3.0
- Postemergence herbicidal rating CHEAL ([21]; 0.062 kg/ha): 4.0
- CHEAL herbicidal rating ([22]; rate 0.016 kg/ha): 9.0
- CHEAL herbicidal rating ([22]; rate 0.032 kg/ha): 9.0
- CHEAL herbicidal rating ([22]; rate 0.062 kg/ha): 9.0
- CHEAL herbicidal rating ([22]; rate 0.125 kg/ha): 9.0
- ECHCG herbicidal rating ([23]; rate 0.016 kg/ha): 0.0
- ECHCG herbicidal rating ([23]; rate 0.032 kg/ha): 0.0
- ECHCG herbicidal rating ([23]; rate 0.062 kg/ha): 2.0
- ECHCG herbicidal rating ([23]; rate 0.125 kg/ha): 7.0
- Postemergence herbicidal rating SETVI ([24]; 0.008 kg/ha): 0.0
- Postemergence herbicidal rating SETVI ([24]; 0.016 kg/ha): 0.0
- Postemergence herbicidal rating SETVI ([24]; 0.032 kg/ha): 0.0
- Postemergence herbicidal rating SETVI ([24]; 0.062 kg/ha): 0.0
